The record followed here is ChEMBL document CHEMBL2375312, “Novel and highly potent histamine H3 receptor ligands. Part 3: an alcohol function to improve the pharmacokinetic profile” (Bioorg Med Chem Lett, 2013).

For data set [1], the system named is Mus musculus. As to the kind of experiment: Inverse agonist activity at histamine H3 receptor in po dosed Swiss mouse assessed as release of N-tele-methylhistamine in brain after 90 mins by enzyme-immunoassay. The settings on record: 1.5 h. The format is functional.
A short description of data set [2]: Half life in Swiss mouse brain. In kind it is ADME, tissue-based.
Data set [3] in a line: Cmax in Swiss mouse brain. The format is ADME, tissue-based.
The nature of data set [4]: Half life in Swiss mouse plasma. In kind it is ADME.
The nature of data set [5]: Tmax in Swiss mouse brain. The format is ADME, tissue-based.
Data set [6] is described as follows: Cmax in Swiss mouse plasma. In kind it is ADME.
The nature of data set [7]: Tmax in Swiss mouse plasma. The format is ADME.
Data set [8] can be described thus: AUC in Swiss mouse brain. In kind it is ADME, organism-based.
Data set [9] can be described thus: AUC in Swiss mouse plasma. In kind it is ADME.
Data set [10] in a line: Half life of the compound. In kind it is physicochemical.
Data set [11] addresses Histamine H3 receptor (Homo sapiens, UniProt Q9Y5N1). As to the kind of experiment: Displacement of [125I]-iodoproxyfan from human recombinant histamine H3 receptor expressed in HEK293 cells after 1 hr by gamma counting analysis. The format is cell-based. Background: Displacement assays read how much labelled ligand stays bound in the presence of the test substance.
Data set [12] deals with Voltage-gated inwardly rectifying potassium channel KCNH2 (Homo sapiens, UniProt Q12809). As to the kind of experiment: Binding affinity to human ERG.
Data set [13] has as its target Cytochrome P450 2C9 (Homo sapiens, UniProt P11712). Briefly: Inhibition of human recombinant CYP2C9. The format is ADME.
Data set [14] deals with Cytochrome P450 2D6 (Homo sapiens, UniProt P10635). Briefly: Inhibition of human recombinant CYP2D6. The format is ADME.
For data set [15], the target named is Cytochrome P450 3A4 (Homo sapiens, UniProt P08684). As to the kind of experiment: Inhibition of human recombinant CYP3A4. In kind it is ADME.
In data set [16] the test system is Mus musculus. Briefly: Inverse agonist activity at histamine H3 receptor in po dosed Swiss mouse assessed as release of N-tele-methylhistamine in brain after 90 mins by enzyme-immunoassay relative to ciproxifan. The format is functional.
Data set [17] is described as follows: AUC (0 to 8 hrs) in Swiss mouse plasma at 10 mg/kg, po by […] analysis. Further details: time < 8 hr, dose 10 mg/kg, route oral. In kind it is ADME, organism-based.
A short description of data set [18]: AUC (0 to 8 hrs) in Swiss mouse brain at 10 mg/kg, po by […] analysis. Further details: time < 8 hr, dose 10 mg/kg, route oral. The format is ADME, organism-based.
The target of data set [19] is Histamine H3 receptor (Mus musculus, UniProt P58406). As to the kind of experiment: Displacement of [125I]-iodoproxyfan from histamine H3 receptor in mouse brain cortex after 1 hr by gamma counting analysis. The format is tissue-based.

Bounds are passed on as bounds.

As a reminder, the ED50 is the midpoint of the dose-response relation. For orientation: half-life means the time in which the quantity being followed falls by half. A word on the Cmax: it is the peak of the concentration-time curve. Usually Tmax stands for the time from dosing to the highest level. The term AUC denotes the area under the concentration-time curve, a measure of exposure. The Ki is the dissociation constant of the complex between target and ligand, obtained from inhibition or displacement. The term IC50 denotes the concentration that inhibits the measured activity by half. Usually AUC(0-t) stands for the area under the concentration-time curve up to a stated or last time point. Low readings indicate less exposure, high ones more exposure.

Histamine H3 receptor (Mus musculus, UniProt P58406), sequence (P58406 whole entry): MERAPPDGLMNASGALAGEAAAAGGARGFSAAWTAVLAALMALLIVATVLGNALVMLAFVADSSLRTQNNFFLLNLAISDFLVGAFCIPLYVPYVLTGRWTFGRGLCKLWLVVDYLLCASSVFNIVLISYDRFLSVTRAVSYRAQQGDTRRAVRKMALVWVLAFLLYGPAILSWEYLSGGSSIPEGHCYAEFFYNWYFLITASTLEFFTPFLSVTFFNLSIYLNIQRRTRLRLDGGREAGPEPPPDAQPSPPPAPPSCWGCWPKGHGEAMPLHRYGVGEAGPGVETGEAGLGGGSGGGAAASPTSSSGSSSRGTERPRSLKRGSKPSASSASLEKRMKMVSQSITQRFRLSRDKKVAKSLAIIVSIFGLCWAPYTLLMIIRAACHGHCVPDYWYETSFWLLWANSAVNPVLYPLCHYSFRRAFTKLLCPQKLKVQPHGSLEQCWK
Histamine H3 receptor (Homo sapiens, UniProt Q9Y5N1), sequence (Q9Y5N1 whole entry): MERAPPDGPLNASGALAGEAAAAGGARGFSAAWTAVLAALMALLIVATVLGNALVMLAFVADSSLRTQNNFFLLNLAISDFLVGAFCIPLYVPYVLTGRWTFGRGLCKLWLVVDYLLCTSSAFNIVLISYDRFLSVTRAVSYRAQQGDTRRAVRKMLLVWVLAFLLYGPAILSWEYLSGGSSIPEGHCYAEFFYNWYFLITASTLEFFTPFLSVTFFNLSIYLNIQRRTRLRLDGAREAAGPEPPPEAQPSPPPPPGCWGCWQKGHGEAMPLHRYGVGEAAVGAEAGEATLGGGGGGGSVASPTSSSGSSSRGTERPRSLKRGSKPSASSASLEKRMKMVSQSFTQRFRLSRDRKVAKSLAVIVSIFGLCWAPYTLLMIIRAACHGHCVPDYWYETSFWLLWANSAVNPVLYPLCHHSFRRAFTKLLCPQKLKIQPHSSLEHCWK
Cytochrome P450 2C9, sequence (P11712 whole entry): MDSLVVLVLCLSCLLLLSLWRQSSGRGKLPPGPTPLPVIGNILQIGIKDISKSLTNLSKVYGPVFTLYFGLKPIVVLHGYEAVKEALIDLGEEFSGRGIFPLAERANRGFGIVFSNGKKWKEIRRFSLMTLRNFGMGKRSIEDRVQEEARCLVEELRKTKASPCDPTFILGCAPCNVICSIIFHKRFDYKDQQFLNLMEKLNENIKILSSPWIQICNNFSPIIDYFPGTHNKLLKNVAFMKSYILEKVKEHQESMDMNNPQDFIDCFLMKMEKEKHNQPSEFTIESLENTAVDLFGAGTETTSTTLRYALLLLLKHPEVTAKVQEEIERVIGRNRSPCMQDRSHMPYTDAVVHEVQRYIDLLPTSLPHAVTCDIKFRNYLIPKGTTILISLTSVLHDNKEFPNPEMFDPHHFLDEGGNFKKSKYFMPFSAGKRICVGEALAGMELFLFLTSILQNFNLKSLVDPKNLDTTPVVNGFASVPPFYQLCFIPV
Cytochrome P450 3A4, sequence (P08684 whole entry): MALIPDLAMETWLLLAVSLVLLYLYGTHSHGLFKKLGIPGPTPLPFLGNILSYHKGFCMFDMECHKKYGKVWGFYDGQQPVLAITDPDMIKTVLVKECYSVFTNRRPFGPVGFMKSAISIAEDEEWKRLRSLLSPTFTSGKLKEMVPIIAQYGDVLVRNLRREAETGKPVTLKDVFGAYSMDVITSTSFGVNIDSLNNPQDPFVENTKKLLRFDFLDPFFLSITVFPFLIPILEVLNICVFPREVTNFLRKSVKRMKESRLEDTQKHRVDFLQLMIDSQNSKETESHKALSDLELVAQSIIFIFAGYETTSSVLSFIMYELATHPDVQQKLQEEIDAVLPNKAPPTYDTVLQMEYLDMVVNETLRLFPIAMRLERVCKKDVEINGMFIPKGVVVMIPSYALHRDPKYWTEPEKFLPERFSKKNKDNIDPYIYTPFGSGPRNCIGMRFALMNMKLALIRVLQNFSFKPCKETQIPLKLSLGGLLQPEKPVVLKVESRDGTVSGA
Cytochrome P450 2D6, sequence (P10635 whole entry): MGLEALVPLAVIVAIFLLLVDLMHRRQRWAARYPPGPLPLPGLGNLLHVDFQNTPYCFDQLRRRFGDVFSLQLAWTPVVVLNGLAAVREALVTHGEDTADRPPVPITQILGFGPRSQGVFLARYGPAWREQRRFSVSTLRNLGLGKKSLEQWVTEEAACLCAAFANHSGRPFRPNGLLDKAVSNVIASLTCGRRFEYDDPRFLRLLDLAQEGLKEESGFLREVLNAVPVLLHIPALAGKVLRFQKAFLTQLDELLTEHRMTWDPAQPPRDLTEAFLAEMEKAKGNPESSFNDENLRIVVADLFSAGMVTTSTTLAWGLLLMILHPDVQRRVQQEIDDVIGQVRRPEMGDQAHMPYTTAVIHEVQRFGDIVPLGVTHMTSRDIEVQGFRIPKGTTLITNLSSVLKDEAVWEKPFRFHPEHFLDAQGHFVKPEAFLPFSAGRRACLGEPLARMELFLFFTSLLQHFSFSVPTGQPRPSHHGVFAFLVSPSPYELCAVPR
Voltage-gated inwardly rectifying potassium channel KCNH2, sequence (Q12809 whole entry): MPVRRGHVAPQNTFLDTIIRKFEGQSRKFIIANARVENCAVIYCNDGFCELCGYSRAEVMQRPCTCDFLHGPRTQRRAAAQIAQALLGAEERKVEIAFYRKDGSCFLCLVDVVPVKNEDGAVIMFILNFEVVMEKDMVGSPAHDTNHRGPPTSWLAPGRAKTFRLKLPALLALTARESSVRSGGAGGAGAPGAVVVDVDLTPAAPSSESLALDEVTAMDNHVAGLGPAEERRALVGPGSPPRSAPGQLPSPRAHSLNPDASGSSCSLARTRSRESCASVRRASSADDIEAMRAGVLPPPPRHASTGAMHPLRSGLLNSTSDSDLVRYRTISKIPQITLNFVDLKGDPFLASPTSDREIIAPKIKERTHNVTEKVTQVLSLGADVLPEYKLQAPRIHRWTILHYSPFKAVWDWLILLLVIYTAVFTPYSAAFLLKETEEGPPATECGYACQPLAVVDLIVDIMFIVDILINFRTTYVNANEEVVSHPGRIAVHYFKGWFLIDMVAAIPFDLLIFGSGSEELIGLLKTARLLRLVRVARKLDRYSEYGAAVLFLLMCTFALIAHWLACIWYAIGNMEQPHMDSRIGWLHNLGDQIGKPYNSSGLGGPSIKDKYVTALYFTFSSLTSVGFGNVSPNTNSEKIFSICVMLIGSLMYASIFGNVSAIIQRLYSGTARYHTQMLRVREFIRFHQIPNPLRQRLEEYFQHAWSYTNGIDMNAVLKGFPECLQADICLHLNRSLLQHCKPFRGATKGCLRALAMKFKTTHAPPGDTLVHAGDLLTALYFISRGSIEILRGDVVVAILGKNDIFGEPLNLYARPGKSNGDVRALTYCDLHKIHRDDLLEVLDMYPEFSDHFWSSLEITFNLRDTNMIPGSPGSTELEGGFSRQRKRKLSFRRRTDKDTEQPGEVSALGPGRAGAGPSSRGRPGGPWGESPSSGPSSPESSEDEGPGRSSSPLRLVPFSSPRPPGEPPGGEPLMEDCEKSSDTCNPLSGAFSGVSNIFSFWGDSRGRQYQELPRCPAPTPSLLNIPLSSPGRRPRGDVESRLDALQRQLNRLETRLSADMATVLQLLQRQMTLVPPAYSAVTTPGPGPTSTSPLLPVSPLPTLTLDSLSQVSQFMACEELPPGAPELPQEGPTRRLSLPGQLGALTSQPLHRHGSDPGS

Regarding `c1cc([C@H]2CC[C@H](N3CCOCC3)CC2)ccc1OCCCN1CCCCC1`, the median effective dose (ED50) in data set [1] was 1.3 mg/kg. Also, the figures for the half-life in [2] and in data set [4] were over 10 h and 5 h, respectively. The maximum concentration (Cmax) in data set [3] came to 2380 ng/mL; in data set [6] it was 357 ng/mL. Further, the time of peak concentration (Tmax) in data set [5] and in data set [7] was 1.5 h throughout. The area under the curve (AUC) stood at 15600 ng·h/mL in data set [8] and 2110 ng·h/mL in [9].

`COCCCS(=O)(=O)c1ccc(-c2ccc(CCN3CCC[C@H]3C)cc2)cc1` showed a half-life in data set [10] of 50 h.

With `OC1(c2ccc(OCCCN3CCCCC3)cc2)CCOCC1`, in data set [11], the Ki is 4.1 nM.

As to `OC(c1ccc(OCCCN2CCCCC2)cc1)C1CCCCC1` (stereo unspecified), the inhibition constant (Ki) in [11] turned out to be 2.9 nM.

For `OC(c1ccc(OCCCN2CCCCC2)cc1)C1CCOCC1` (stereo unspecified), the inhibition constant (Ki) in data set [11] was 13 nM.

Consider `OCCc1ccc(OCCCN2CCCCC2)cc1`, for which, in data set [11], the Ki came to 32 nM.

Turning to `CC(O)CCc1ccc(OCCCN2CCCCC2)cc1` (stereo unspecified), in data set [11], the inhibitory constant (Ki) was 3.3 nM.

Turning to `CC(C)(O)CCc1ccc(OCCCN2CCCCC2)cc1`, the inhibition constant (Ki) in data set [11] came to 4 nM.

In the case of `OCC#Cc1ccc(OCCCN2CCCCC2)cc1`, the Ki in [11] came out at 15 nM.

`OCCC#Cc1ccc(OCCCN2CCCCC2)cc1`: the Ki in data set [11] was 19 nM.

In the case of `O[C@H]1CC[C@H](c2ccc(OCCCN3CCCCC3)cc2)CC1`, the inhibition constant Ki in data set [12] turned out to be 5800 nM; in data set [19], 6.9 nM; in data set [11], 2.6 nM. Also, the IC50 in data set [13] was 40300 nM; in data set [14], over 100000 nM; in data set [15], 30300 nM. The ED50 in data set [1] was determined as 0.3 mg/kg. For the same compound, the Ratio in data set [16] came to 1. Further, the AUC(0-t) at 8 h was determined as 4980 ng·h/mL in data set [17] and 18000 ng·h/mL in data set [18].

Consider `OC1CCC(Cc2ccc(OCCCN3CCCCC3)cc2)CC1` (stereo unspecified), for which the results for the inhibition constant (Ki) in data set [19] and in [11] were 6.3 nM and 1.9 nM, respectively.

Consider `OCc1ccc(OCCCN2CCCCC2)cc1`, for which the inhibition constant Ki in data set [11] was found to be 22.7 nM.

As to `CC(C)(O)c1ccc(OCCCN2CCCCC2)cc1`, the Ki in [11] turned out to be 6.8 nM.

Turning to `C=CC(O)c1ccc(OCCCN2CCCCC2)cc1` (stereo unspecified), the Ki in data set [19] worked out at 18 nM; in [11], 8.6 nM.

Regarding `C=CCC(O)c1ccc(OCCCN2CCCCC2)cc1` (stereo unspecified), in data set [11], the Ki worked out at 6.9 nM.

Regarding `CCC(O)(CC)c1ccc(OCCCN2CCCCC2)cc1`, the inhibition constant Ki stood at 14 nM in data set [19] and 1.4 nM in data set [11].

`CCCC(O)(CCC)c1ccc(OCCCN2CCCCC2)cc1` showed a Ki in [19] of 2.5 nM.

Regarding `C=CCC(O)(CC=C)c1ccc(OCCCN2CCCCC2)cc1`, the Ki in data set [19] stood at 4.3 nM; in data set [11], 0.54 nM.

`OC1(c2ccc(OCCCN3CCCCC3)cc2)CCC1`: the Ki in data set [11] came to 18 nM.

In data set [19], `OC1(c2ccc(OCCCN3CCCCC3)cc2)CCCC1` gave an inhibitory constant (Ki) of 7.6 nM.

For `OC1(c2ccc(OCCCN3CCCCC3)cc2)CCCCC1`, in data set [11], the Ki was 3.9 nM.

For `OC1CCN([C@H]2CC[C@H](c3ccc(OCCCN4CCCCC4)cc3)CC2)CC1` (mixture of isomers), the half-life in [2] was over 10 h; in [4] it was 6 h. Moreover, the highest concentration (Cmax) was 215 ng/mL in data set [3] and 399 ng/mL in [6]. Besides, the time of peak concentration (Tmax) in [5] was 3 h; in data set [7], 1.5 h. Moreover, the AUC in [8] and in [9] was 1520 ng·h/mL each time.
